The target of assay [1] is FGFR4 (GST-FGFR4(388-802)) (Homo sapiens (Human), UniProt P22455). In words: In-vitro biochemical kinase assay for FGFR4 (Caliper microfluidic mobility shift).
Assay [2] has as its target Tel-FGFR4 (Homo sapiens (Human), UniProt P22455). Briefly: In vitro cellular kinase assay for FGFR4 (BaF3-Tel-FGFR4 cells, MSD capture ELISA of tyrosine phosphorylation). In kind it is cell-based. (In general: An ELISA detects its analyte on a solid surface through an enzyme-linked reagent.)
Where [3] appears, read: biochemical FGFR4 assay, read-out: Biochemical IC50.
Where [4] appears, read: Cellular BaF3 FGFR4 assay, read-out: Cellular IC50.
The mark [5] stands for this setting: read-out: Biochemical FGFR4 IC50.
Where [6] appears, read: BaF3-Tel-FGFR4 cells, 1 hour incubation, read-out: Cellular BaF3 FGFR4 IC50.

Where two headings read alike, the source gives them in different places.

Chain of FGFR4 (GST-FGFR4(388-802)) (P22455 388-802): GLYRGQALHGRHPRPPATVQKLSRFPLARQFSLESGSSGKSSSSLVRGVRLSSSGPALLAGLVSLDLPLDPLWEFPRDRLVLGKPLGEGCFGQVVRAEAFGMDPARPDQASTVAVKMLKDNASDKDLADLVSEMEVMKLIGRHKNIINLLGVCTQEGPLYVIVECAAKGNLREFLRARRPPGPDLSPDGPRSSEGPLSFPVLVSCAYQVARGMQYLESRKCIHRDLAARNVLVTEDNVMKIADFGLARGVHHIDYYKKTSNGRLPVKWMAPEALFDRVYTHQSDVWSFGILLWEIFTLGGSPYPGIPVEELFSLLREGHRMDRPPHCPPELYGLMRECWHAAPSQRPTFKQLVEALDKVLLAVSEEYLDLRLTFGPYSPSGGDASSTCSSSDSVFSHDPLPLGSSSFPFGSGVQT
Chain of Tel-FGFR4 (P22455 other isoform, or with tags, fused parts or gaps): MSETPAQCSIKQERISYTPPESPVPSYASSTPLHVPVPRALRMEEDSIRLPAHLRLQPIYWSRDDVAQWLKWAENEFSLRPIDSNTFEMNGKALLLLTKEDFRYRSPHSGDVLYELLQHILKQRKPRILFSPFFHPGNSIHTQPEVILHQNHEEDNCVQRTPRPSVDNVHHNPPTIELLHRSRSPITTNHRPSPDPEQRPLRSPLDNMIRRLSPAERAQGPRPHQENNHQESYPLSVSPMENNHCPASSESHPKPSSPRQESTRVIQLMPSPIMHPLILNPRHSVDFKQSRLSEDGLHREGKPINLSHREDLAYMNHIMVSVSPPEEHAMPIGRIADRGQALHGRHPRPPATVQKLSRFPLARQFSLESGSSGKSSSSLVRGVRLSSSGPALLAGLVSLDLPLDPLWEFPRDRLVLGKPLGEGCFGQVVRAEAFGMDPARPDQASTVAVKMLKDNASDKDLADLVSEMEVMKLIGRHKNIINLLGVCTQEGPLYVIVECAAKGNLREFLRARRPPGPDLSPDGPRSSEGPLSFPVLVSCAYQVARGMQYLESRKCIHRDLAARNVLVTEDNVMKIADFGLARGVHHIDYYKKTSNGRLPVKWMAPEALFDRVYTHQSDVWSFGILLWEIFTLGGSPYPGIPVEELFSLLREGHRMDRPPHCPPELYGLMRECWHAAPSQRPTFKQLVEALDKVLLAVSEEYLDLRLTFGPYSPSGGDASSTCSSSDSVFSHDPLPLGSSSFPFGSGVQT

With `COCCNc1cc(NC(=O)N2CCCc3cc(CN4C[C@@H](N(C)C)CC4=O)c(C=O)nc32)ncc1C#N` [(S)-N-(5-cyano-4-((2-methoxyethyl)amino)pyridin-2-yl)-6-((4-(dimethylamino)-2-oxopyrrolidin-1-yl)methyl)-7-formyl-3,4-dihydro-1,8-naphthyridine-1(2H)-carboxamide], the IC50 (in general, the midpoint of a concentration-inhibition curve) in assay [1] (setting [3]) amounted to 0.6 nM; in assay [2] (setting [4]), 5.8 nM.
As for `N#Cc1cnc(NC(=O)N2CCCc3cc(CN4CC[C@H](O)C4=O)c(C=O)nc32)cc1OCC(F)F` [(S)N-(5-cyano-4-(2,2-difluoroethoxyl)pyridin-2-yl)-7-formyl-6-((3-hydroxy-2-oxopyrrolidin-1-yl)methyl)-3,4-dihydro-1,8-naphthyridine-1(2H)-carboxamide], the values for the IC50 in assay [1] (setting [3]) and in assay [2] (setting [4]) were 4.8 nM and 13.5 nM, respectively.
Take `CN1CCN(Cc2cc3c(nc2C=O)N(C(=O)Nc2cc(OCCO)c(C#N)cn2)CCC3)C(=O)C1` [Example 199, N-(5-cyano-4-(2-hydroxyethoxyl)pyridin-2-yl)-7-formyl-6-((4-methyl-2-oxopiperazin-1-yl)methyl)-3,4-dihydro-1,8-naphthyridine-1(2H)-carboxamide]: the figures for the IC50 in assay [1] (setting [5]) and in assay [2] (setting [6]) were 2.3 nM and 19.3 nM, respectively.
Consider `CC(C)Oc1cc(NC(=O)N2CCCc3cc(CN4CCN(C)C(=O)C4)c(C=O)nc32)ncc1C#N` [N-(5-cyano-4-isopropoxypyridin-2-yl)-7-formyl-6-((4-methyl-3-oxopiperazin-1-yl)methyl)-3,4-dihydro-1,8-naphthyridine-1(2H)-carboxamide], for which the IC50 in assay [1] (setting [3]) was found to be 1.7 nM; in assay [2] (setting [4]), 17 nM.
Regarding `COCCNc1cc(NC(=O)N2CCCc3cc(CN4C[C@H](N(C)C)CC4=O)c(C=O)nc32)ncc1C#N` [(R)-N-(5-cyano-4-((2-methoxyethyl)amino)pyridin-2-yl)-6-((4-(dimethylamino)-2-oxopyrrolidin-1-yl)methyl)-7-formyl-3,4-dihydro-1,8-naphthyridine-1(2H)-carboxamide], the values for the IC50 in assay [1] (setting [3]) and in assay [2] (setting [4]) were 0.2 nM and 6.1 nM, respectively.
As to `COC[C@@H](C)Oc1cc(NC(=O)N2CCCc3cc(CN4CCCC4=O)c(C=O)nc32)ncc1C#N` [(R)-N-(5-cyano-4-((1-methoxypropan-2-yl)oxy)pyridin-2-yl)-7-formyl-6-((2-oxopyrrolidin-1-yl)methyl)-3,4-dihydro-1,8-naphthyridine-1(2H)-carboxamide], the IC50 in assay [1] (setting [3]) came out at 0.3 nM; in assay [2] (setting [4]) it was 2.3 nM.
On the same counts, the results for `COCCNc1cc(NC(=O)N2CCCc3cc(-c4ccncc4)c(C=O)nc32)ncc1C#N` [N-(5-cyano-4-((2-methoxyethyl)amino)pyridin-2-yl)-7-formyl-6-(pyridin-4-yl)-3,4-dihydro-1,8-naphthyridine-1(2H)-carboxamide] are 3.1 nM and 14.5 nM.
On to `CC(C)Oc1cc(NC(=O)N2CCCc3cc(CN4CCN(C)CC4)c(C=O)nc32)ncc1C#N` [N-(5-cyano-4-isopropoxypyridin-2-yl)-7-formyl-6-((4-methylpiperazin-1-yl)methyl)-3,4-dihydro-1,8-naphthyridine-1(2H)-carboxamide], for which the IC50 in assay [1] (setting [3]) stood at 3 nM; in assay [2] (setting [4]) it was 55.5 nM.
For the compound `COCCNc1cc(NC(=O)N2CCCc3cc(C4CCN(CC(F)F)CC4)c(C=O)nc32)ncc1C#N` [Example 267, N-(5-cyano-4-((2-methoxyethyl)amino)pyridin-2-yl)-6-(1-(2,2-difluoroethyl)piperidin-4-yl)-7-formyl-3,4-dihydro-1,8-naphthyridine-1(2H)-carboxamide], the IC50 came out at 1.2 nM in assay [1] (setting [5]) and 16.7 nM in assay [2] (setting [6]).
Consider `COC[C@H](C)Oc1cc(NC(=O)N2CCCc3cc(CN4CCCC4=O)c(C=O)nc32)ncc1C#N` [(S)-N-(5-cyano-4-((1-methoxypropan-2-yl)oxy)pyridin-2-yl)-7-formyl-6-((2-oxopyrrolidin-1-yl)methyl)-3,4-dihydro-1,8-naphthyridine-1(2H)-carboxamide], for which the IC50 in assay [1] (setting [3]) was determined as 4.6 nM; in assay [2] (setting [4]) it was 7.6 nM.
On the same counts, the results for `COC[C@@H](C)Nc1cc(NC(=O)N2CCCc3cc(CN4CCCC4=O)c(C=O)nc32)ncc1C#N` [(R)-N-(5-cyano-4-((1-methoxypropan-2-yl)amino)pyridin-2-yl)-7-formyl-6-((2-oxopyrrolidin-1-yl)methyl)-3,4-dihydro-1,8-naphthyridine-1(2H)-carboxamide] are 0.6 nM and 4.8 nM.
As for `N#Cc1cnc(NC(=O)N2CCCc3ccc(C=O)nc32)cc1Cl` [Example 24, N-(4-chloro-5-cyanopyridin-2-yl)-7-formyl-3,4-dihydro-1,8-naphthyridine-1(2H)-carboxamide], the IC50 in assay [1] (setting [5]) was 24 nM; in assay [2] (setting [6]), > 3000 nM.
For the compound `COC[C@H](C)Nc1cc(NC(=O)N2CCCc3cc(CN4CCOCC4=O)c(C=O)nc32)ncc1C#N` [(S)-N-(5-cyano-4-((1-methoxypropan-2-yl)amino)pyridin-2-yl)-7-formyl-6-((3-oxomorpholino)methyl)-3,4-dihydro-1,8-naphthyridine-1(2H)-carboxamide], the IC50 was 2.5 nM in assay [1] (setting [3]) and 5.7 nM in assay [2] (setting [4]).
As to `COCCNc1cc(NC(=O)N2CCCc3cc(CN(C)C(=O)CN(C)C)c(C=O)nc32)ncc1C#N` [N-(5-cyano-4-((2-methoxyethyl)amino)pyridin-2-yl)-6-((2-(dimethylamino)-N-methylacetamido)methyl)-7-formyl-3,4-dihydro-1,8-naphthyridine-1(2H)-carboxamide], the IC50 in assay [1] (setting [3]) stood at 0.2 nM; in assay [2] (setting [4]), 6.1 nM.
On to `COCCNc1cc(NC(=O)N2CCC(O)c3cc(CN4CCN(C)CC4=O)c(C=O)nc32)ncc1C#N` (stereo not shown) [N-(5-cyano-4-((2-methoxyethyl)amino)pyridin-2-yl)-7-formyl-4-hydroxy-6-((4-methyl-2-oxopiperazin-1-yl)methyl)-3,4-dihydro-1,8-naphthyridine-1(2H)-carboxamide], for which the figures for the IC50 in assay [1] (setting [3]) and in assay [2] (setting [4]) were 1.8 nM and 51.3 nM, respectively.
On the same counts, the results for `COc1nc(NC(=O)N2CCCc3cc(CN4CCN(C)CC4=O)c(C=O)nc32)ncc1C#N` [N-(5-cyano-4-methoxypyrimidin-2-yl)-7-formyl-6-((4-methyl-2-oxopiperazin-1-yl)methyl)-3,4-dihydro-1,8-naphthyridine-1(2H)-carboxamide] are 49 nM and 75 nM.
Take `CCCCC(O)c1ccc(NC(=O)N2CCCc3ccc(C=O)nc32)nc1` (racemic) [Example 22, 7-formyl-N-(5-(1-hydroxypentyl)pyridin-2-yl)-3,4-dihydro-1,8-naphthyridine-1(2H)-carboxamide]: the IC50 in assay [1] (setting [5]) was 230 nM; in assay [2] (setting [6]), 2610 nM.
In the case of `CC(C)Oc1cc(NC(=O)N2CCCc3cc(CN(C)C(=O)C(C)C)c(C=O)nc32)ncc1C#N` [N-(5-cyano-4-isopropoxypyridin-2-yl)-7-formyl-6-((N-methylisobutyramido)methyl)-3,4-dihydro-1,8-naphthyridine-1(2H)-carboxamide], the IC50 worked out at 1.2 nM in assay [1] (setting [3]) and 12.5 nM in assay [2] (setting [4]).
On to `CCNc1cc(NC(=O)N2CCCc3cc(CN(CC)C(=O)CN(C)C)c(C=O)nc32)ncc1C#N` [N-(5-cyano-4-(ethylamino)pyridin-2-yl)-6-((2-(dimethylamino)-N-ethylacetamido)methyl)-7-formyl-3,4-dihydro-1,8-naphthyridine-1(2H)-carboxamide], for which the results for the IC50 in assay [1] (setting [3]) and in assay [2] (setting [4]) were 0.2 nM and 10.2 nM, respectively.
With `COC[C@H](C)Oc1cc(NC(=O)N2CCCc3cc(CN(C)C(C)=O)c(C=O)nc32)ncc1C#N` [(S)-N-(5-cyano-4-((1-methoxypropan-2-yl)oxy)pyridin-2-yl)-7-formyl-6-((N-methylacetamido)methyl)-3,4-dihydro-1,8-naphthyridine-1(2H)-carboxamide], the IC50 is 4 nM in assay [1] (setting [3]) and 12.1 nM in assay [2] (setting [4]).
Regarding `CCN1CCN(Cc2cc3c(nc2C=O)N(C(=O)Nc2cc(NCCOC)c(C#N)cn2)CCC3)C(=O)C1` [N-(5-cyano-4-((2-methoxyethyl)amino)pyridin-2-yl)-6-((4-ethyl-2-oxopiperazin-1-yl)methyl)-7-formyl-3,4-dihydro-1,8-naphthyridine-1(2H)-carboxamide], the IC50 turned out to be 1.6 nM in assay [1] (setting [3]) and 9.8 nM in assay [2] (setting [4]).
`CC(C)Nc1cc(NC(=O)N2CCCc3cc(CO)c(C=O)nc32)ncc1C#N` [N-(5-cyano-4-(isopropylamino)pyridin-2-yl)-7-formyl-6-(hydroxymethyl)-3,4-dihydro-1,8-naphthyridine-1(2H)-carboxamide]: the IC50 in assay [1] (setting [3]) worked out at 2 nM; in assay [2] (setting [4]) it was 8.6 nM.
For the compound `N#Cc1cnc(NC(=O)N2CCCc3cc(CO)c(C=O)nc32)cc1OCC(F)(F)F` [Example 89, N-(5-cyano-4-(2,2,2-trifluoroethoxyl)pyridin-2-yl)-7-formyl-6-(hydroxymethyl)-3,4-dihydro-1,8-naphthyridine-1(2H)-carboxamide], the IC50 in assay [1] (setting [5]) worked out at 8.9 nM; in assay [2] (setting [6]) it was 14.5 nM.
As to `COCCNc1cc(NC(=O)N2CCCc3cc(CN4CCN(C)C(=O)C4)c(C=O)nc32)ncc1C#N` [N-(5-cyano-4-((2-methoxyethyl)amino)pyridin-2-yl)-7-formyl-6-((4-methyl-3-oxopiperazin-1-yl)methyl)-3,4-dihydro-1,8-naphthyridine-1(2H)-carboxamide], the IC50 amounted to 1.3 nM in assay [1] (setting [3]) and 7.1 nM in assay [2] (setting [4]).
On to `CCNc1cc(NC(=O)N2CCCc3cc(CN4CCN(C)CC4=O)c(C=O)nc32)ncc1C#N` [N-(5-cyano-4-(ethylamino)pyridin-2-yl)-7-formyl-6-((4-methyl-2-oxopiperazin-1-yl)methyl)-3,4-dihydro-1,8-naphthyridine-1(2H)-carboxamide], for which the IC50 in assay [1] (setting [3]) turned out to be 3.4 nM; in assay [2] (setting [4]), 12 nM.
As for `CC(C)Nc1cc(NC(=O)N2CCCc3cc(C(F)F)c(C=O)nc32)ncc1C#N` [N-(5-cyano-4-(isopropylamino)pyridin-2-yl)-6-(difluoromethyl)-7-formyl-3,4-dihydro-1,8-naphthyridine-1(2H)-carboxamide], the values for the IC50 in assay [1] (setting [3]) and in assay [2] (setting [4]) were 1.3 nM and 20.3 nM, respectively.

The values are drawn from US9266883B2, “Ring-fused bicyclic pyridyl derivatives as FGFR4 inhibitors” (Novartis AG, priority 2013, dated 2016).
